In patent US20240293558A1, “KRAS INHIBITOR CONJUGATES” (Erasca, Inc., priority 2021, published 2024):

Legend:
KRAS (WT) = target: T1, KRAS (WT) (Homo sapiens, UniProt P01116); assay: In-vitro RAS-RAF binding assay (RRB), HTRF/FRET; assay type: biochemical; details: Table 2, average of multiple runs of each compound; read-out: Inhibition of RAS-RAF Binding (in-vitro) KRAS (WT) IC50
T1 construct: Biotinylated KRAS protein amino acids 1-169 (produced at Erasca); made in house
Experimental: (§1) Biotinylated KRAS protein amino acids 1-169 (produced at […]) is labeled with streptavidin-terbium (lanthanide cryptate donor fluorophore) in assay buffer (50 mM HEPES, pH 7.5, 100 mM NaCl, 1 mM MgCl2, 1 mM DTT) at a final concentration of 30 nM. In a separate reaction mixture, 30 nM cRAF (RBD) (Abcam, Cambridge MA) is labeled with anti-GST d2 (acceptor fluorophore). Labeling reactions are incubated for 1 hour at room temperature. […] Following the compound incubation, SOS1 catalytic domain (produced at […]) and GTPgS are added to the reaction to initiate nucleotide exchange (60 minutes exchange reaction). Once in the GTP state KRAS will bind to cRAF. No binding will occur if KRAS remains in the GDP state. Compounds may block nucleotide exchange or may create a steric obstruction to cRAF-KRAS interaction by binding to the RAS effector site. […] A portion of this mixture is transferred to a white 384-well plate (20 uL per well in duplicate) and read on an HTRF compatible plate reader (ClarioSTAR). Fluorescent resonance energy transfer (FRET) is measured at equilibrium. FRET signal will be high if KRAS-cRAF binding occurs. FRET signal will be low if KRAS-cRAF binding is inhibited by the test compound. Table 2 represents the average of multiple runs of each compound.

KRAS G12D = KRAS G12D (Homo sapiens, UniProt P01116, G12D); assay: In-vitro RAS-RAF binding assay (RRB), HTRF/FRET; assay type: biochemical; design: Biotinylated KRAS protein amino acids 1-169 (produced at Erasca); made in house; details: Table 2, average of multiple runs of each compound; read-out: Inhibition of RAS-RAF Binding (in-vitro) KRAS (G12D) IC50
Chain of KRAS G12D (P01116 1-169 isoform P01116-2 G12D): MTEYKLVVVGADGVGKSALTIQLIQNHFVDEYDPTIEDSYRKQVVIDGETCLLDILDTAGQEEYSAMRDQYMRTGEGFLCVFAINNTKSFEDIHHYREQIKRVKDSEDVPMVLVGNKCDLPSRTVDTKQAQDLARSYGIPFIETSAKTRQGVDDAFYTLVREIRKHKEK
Experimental: as §1

T1 sequence (P01116 1-169 isoform P01116-2): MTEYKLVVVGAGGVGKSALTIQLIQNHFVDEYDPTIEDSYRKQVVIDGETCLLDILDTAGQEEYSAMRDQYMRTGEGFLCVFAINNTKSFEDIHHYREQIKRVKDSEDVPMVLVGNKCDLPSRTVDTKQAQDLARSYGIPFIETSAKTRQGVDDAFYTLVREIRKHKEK

IC50 (KRAS (WT)) [µM] | IC50 (KRAS G12D) [µM] | SMILES
0.0242 | 0.00793 | C#Cc1c(F)ccc2cc(O)cc(-c3ncc4c(N5CC6CCC(C5)N6)nc(OC[C@@H]5CCCN5CCCOCCC(=O)N[C@H](C(=O)N5C[C@H](O)C[C@H]5C(=O)N[C@@H](C)c5ccc(-c6ccncc6C#N)cc5)C(C)(C)C)nc4c3F)c12 [Example 28, (2S,4R)-1-((2S)-2-(3-(3-((2S)-2-(((4-(3,8-diazabicyclo[3.2.1]octan-3-yl)-7-(8-ethynyl-7-fluoro-3-hydroxynaphthalen-1-yl)-8-fluoropyrido[4,3-d]pyrimidin-2-yl)oxy)methyl)pyrrolidin-1-yl)propoxy)propanamido)-3,3-dimethylbutanoyl)-N—((S)-1-(4-(3-cyanopyridin-4-yl)phenyl)ethyl)-4-hydroxypyrrolidine-2-carboxamide]
0.0249 | 0.00778 | C#Cc1c(F)ccc2cc(O)cc(-c3ncc4c(N5CC6CCC(C5)N6)nc(OC[C@@H]5CCCN5CCCOCCC(=O)N[C@H](C(=O)N5C[C@H](O)C[C@H]5C(=O)N[C@@H](C)c5ccc(-c6c(F)cccc6Cl)cc5)C(C)(C)C)nc4c3F)c12 [Example 42, (2S,4R)-1-((2S)-2-(3-(3-((2S)-2-(((4-(3,8-diazabicyclo[3.2.1]octan-3-yl)-7-(8-ethynyl-7-fluoro-3-hydroxynaphthalen-1-yl)-8-fluoropyrido[4,3-d]pyrimidin-2-yl)oxy)methyl)pyrrolidin-1-yl)propoxy)propanamido)-3,3-dimethylbutanoyl)-N-((S)-1-(2′-chloro-6′-fluoro-[1,1′-biphenyl]-4-yl)ethyl)-4-hydroxypyrrolidine-2-carboxamide]
0.0634 | 0.00991 | C#Cc1c(F)ccc2cc(O)cc(-c3ncc4c(N5CC6CCC(C5)N6)nc(OC[C@@H]5CCCN5CCCOCCCC(=O)N[C@H](C(=O)N5C[C@H](O)C[C@H]5C(=O)N[C@@H](C)c5ccc(-c6c(F)cccc6F)cc5)C(C)(C)C)nc4c3F)c12 [Example 34, (2S,4R)-1-((2S)-2-(4-(3-((2S)-2-(((4-(3,8-diazabicyclo[3.2.1]octan-3-yl)-7-(8-ethynyl-7-fluoro-3-hydroxynaphthalen-1-yl)-8-fluoropyrido[4,3-d]pyrimidin-2-yl)oxy)methyl)pyrrolidin-1-yl)propoxy)butanamido)-3,3-dimethylbutanoyl)-N—((S)-1-(2′,6′-difluoro-[1,1′-biphenyl]-4-yl)ethyl)-4-hydroxypyrrolidine-2-carboxamide]
0.0383 | 0.00768 | C#Cc1c(F)ccc2cc(O)cc(-c3ncc4c(N5CC6CCC(C5)N6)nc(OC[C@@H]5CCCN5CCCOCCC(=O)N[C@H](C(=O)N5C[C@H](O)C[C@H]5C(=O)N[C@@H](C)c5ccc(-c6c(F)cccc6C(F)(F)F)cc5)C(C)(C)C)nc4c3F)c12 [Example 43, (2S,4R)-1-((2S)-2-(3-(3-((2S)-2-(((4-(3,8-diazabicyclo[3.2.1]octan-3-yl)-7-(8-ethynyl-7-fluoro-3-hydroxynaphthalen-1-yl)-8-fluoropyrido[4,3-d]pyrimidin-2-yl)oxy)methyl)pyrrolidin-1-yl)propoxy)propanamido)-3,3-dimethylbutanoyl)-N-((S)-1-(2′-fluoro-6′-(trifluoromethyl)-[1,1′-biphenyl]-4-yl)ethyl)-4-hydroxypyrrolidine-2-carboxamide]
0.0265 | 0.00888 | C#Cc1c(F)ccc2cc(O)cc(-c3ncc4c(N5CC6CCC(C5)N6)nc(OC[C@@H]5CCCN5CCCOCCC(=O)N[C@H](C(=O)N5C[C@H](O)C[C@H]5C(=O)N[C@@H](C)c5ccc(-c6ccccc6C#N)cc5)C(C)(C)C)nc4c3F)c12 [Example 40, (2S,4R)-1-((2S)-2-(3-(3-((2S)-2-(((4-(3,8-diazabicyclo[3.2.1]octan-3-yl)-7-(8-ethynyl-7-fluoro-3-hydroxynaphthalen-1-yl)-8-fluoropyrido[4,3-d]pyrimidin-2-yl)oxy)methyl)pyrrolidin-1-yl)propoxy)propanamido)-3,3-dimethylbutanoyl)-N-((S)-1-(2′-cyano-[1,1′-biphenyl]-4-yl)ethyl)-4-hydroxypyrrolidine-2-carboxamide]
0.0534 | 0.0094 | C#Cc1c(F)ccc2cc(O)cc(-c3ncc4c(N5CC6CCC(C5)N6)nc(OC[C@@H]5CCCN5CCCOCCC(=O)N[C@H](C(=O)N5C[C@H](O)C[C@H]5C(=O)N[C@@H](C)c5ccc(-c6c(C)cccc6C)cc5)C(C)(C)C)nc4c3F)c12 [Example 41, (2S,4R)-1-((2S)-2-(3-(3-((2S)-2-(((4-(3,8-diazabicyclo[3.2.1]octan-3-yl)-7-(8-ethynyl-7-fluoro-3-hydroxynaphthalen-1-yl)-8-fluoropyrido[4,3-d]pyrimidin-2-yl)oxy)methyl)pyrrolidin-1-yl)propoxy)propanamido)-3,3-dimethylbutanoyl)-N-((S)-1-(2′,6′-dimethyl-[1,1′-biphenyl]-4-yl)ethyl)-4-hydroxypyrrolidine-2-carboxamide]

Second part, the compound before the results:

SMILES | IC50 (KRAS (WT)) [µM] | IC50 (KRAS G12D) [µM]
C#Cc1c(F)ccc2cc(O)cc(-c3ncc4c(N5CC6CCC(C5)N6)nc(OC[C@@H]5CCCN5CCCOCCC(=O)N[C@H](C(=O)N5C[C@H](O)C[C@H]5C(=O)N[C@@H](C)c5ccc(-c6cc(F)cc(F)c6F)cc5)C(C)(C)C)nc4c3F)c12 [Example 58, (2S,4R)-1-((2S)-2-(3-(3-((2S)-2-(((4-(3,8-diazabicyclo[3.2.1]octan-3-yl)-7-(8-ethynyl-7-fluoro-3-hydroxynaphthalen-1-yl)-8-fluoropyrido[4,3-d]pyrimidin-2-yl)oxy)methyl)pyrrolidin-1-yl)propoxy)propanamido)-3,3-dimethylbutanoyl)-4-hydroxy-N-((S)-1-(2′,3′,5′-trifluoro-[1,1′-biphenyl]-4-yl)ethyl)pyrrolidine-2-carboxamide] | 0.0659 | 0.00955
C#Cc1c(F)ccc2cc(O)cc(-c3ncc4c(N5CC6CCC(C5)N6)nc(OC[C@@H]5CCCN5CCCOCCC(=O)N[C@H](C(=O)N5C[C@H](O)C[C@H]5C(=O)N[C@@H](C)c5ccc(-c6cc(F)c(F)c(F)c6)cc5)C(C)(C)C)nc4c3F)c12 [Example 52, (2S,4R)-1-((2S)-2-(3-(3-((2S)-2-(((4-(3,8-diazabicyclo[3.2.1]octan-3-yl)-7-(8-ethynyl-7-fluoro-3-hydroxynaphthalen-1-yl)-8-fluoropyrido[4,3-d]pyrimidin-2-yl)oxy)methyl)pyrrolidin-1-yl)propoxy)propanamido)-3,3-dimethylbutanoyl)-4-hydroxy-N-((S)-1-(3′,4′,5′-trifluoro-[1,1′-biphenyl]-4-yl)ethyl)pyrrolidine-2-carboxamide] | 0.114 | 0.00784
C[C@H](NC(=O)[C@@H]1C[C@@H](O)CN1C(=O)[C@@H](NC(=O)CCOCCCN1CCC[C@H]1COc1nc(N2CC3CCC(C2)N3)c2cc(C(F)(F)F)c(-c3ccc(F)c4sc(N)c(C#N)c34)cc2n1)C(C)(C)C)c1ccc(-c2c(F)cccc2F)cc1 [Example 21, (2S,4R)-1-((2S)-2-(3-(3-((2S)-2-(((7-(2-amino-3-cyano-7-fluorobenzo [b]thiophen-4-yl)-4-(3,8-diazabicyclo[3.2.1]octan-3-yl)-6-(trifluoromethyl)quinazolin-2-yl)oxy)methyl)pyrrolidin-1-yl)propoxy)propanamido)-3,3-dimethylbutanoyl)-N—((S)-1-(2′,6′-difluoro-[1,1′-biphenyl]-4-yl)ethyl)-4-hydroxypyrrolidine-2-carboxamide] | 0.162 | 0.0144
C#Cc1c(F)ccc2cc(O)cc(-c3ncc4c(N5CC6CCC(C5)N6)nc(OC[C@@H]5CCCN5CCCOCCC(=O)N[C@H](C(=O)N5C[C@H](O)C[C@H]5C(=O)N[C@@H](C)c5ccc(-c6c(F)cccc6F)cn5)C(C)(C)C)nc4c3F)c12 [Example 30, (2S,4R)-1-((2S)-2-(3-(3-((2S)-2-(((4-(3,8-diazabicyclo[3.2.1]octan-3-yl)-7-(8-ethynyl-7-fluoro-3-hydroxynaphthalen-1-yl)-8-fluoropyrido[4,3-d]pyrimidin-2-yl)oxy)methyl)pyrrolidin-1-yl)propoxy)propanamido)-3,3-dimethylbutanoyl)-N—((S)-1-(5-(2,6-difluorophenyl)pyridin-2-yl)ethyl)-4-hydroxypyrrolidine-2-carboxamide] | 0.0223 | 0.00759
C#Cc1c(F)ccc2cc(O)cc(-c3ncc4c(N5CC6CCC(C5)N6)nc(OC[C@@H]5CCCN5CCCOCCC(=O)N[C@H](C(=O)N5C[C@H](O)C[C@H]5C(=O)N[C@@H](C)c5ccc(N6CCC[C@H]6C#N)cc5)C(C)(C)C)nc4c3F)c12 [Example 33, (2S,4R)-1-((2S)-2-(3-(3-((2S)-2-(((4-(3,8-diazabicyclo[3.2.1]octan-3-yl)-7-(8-ethynyl-7-fluoro-3-hydroxynaphthalen-1-yl)-8-fluoropyrido[4,3-d]pyrimidin-2-yl)oxy)methyl)pyrrolidin-1-yl)propoxy)propanamido)-3,3-dimethylbutanoyl)-N—((S)-1-(4-((S)-2-cyanopyrrolidin-1-yl)phenyl)ethyl)-4-hydroxypyrrolidine-2-carboxamide] | 0.00305 | 0.00748
